{"source": "patent US12214036B2", "about": "“Combination therapy comprising AXL/MER and PD-1/PD-L1 inhibitors” (Incyte Corporation, priority 2020, dated 2025)", "key": {"parental BAF3 cells": {"tested_on": "parental BAF3 cells", "test": "Parental BAF3 cell proliferation assay (CellTiter-Glo)", "assay_type": "cell-based", "settings": "Mus musculus, 48 hours, 2% FBS", "text": "To evaluate the cellular potency and selectivity within the TAM receptor family, mouse BAF3 cell lines with stable expression of AXL, MER, or TYRO3 were generated.\nThe cytoplasmic domain of AXL, MER, or TYRO3 fused with dimerization sequence and HA tag was cloned into a pMSCV (murine stem cell virus) vector with a puromycin-resistance marker to generate three constructs individually by electroporation into BAF3 cells. Single clones that were IL-3-independent and puromycin-resistant were selected and characterized. To evaluate effects on BAF3 cell proliferation, 1000 cells/well of BAF3, BAF3-AXL, BAF3 MER, or BAF3-TYRO3 cells were treated in the presence or absence of Compound 1 at various concentrations (10 concentration points with a three-fold dilution factor from the highest concentration of 10 μM) diluted in RPMI-1640 with 2% FBS for 48 hours in a 384-well plate. Cell viability was measured by ATP assay (CellTiter-Glo Assay, Promega, Madison, Wis.) according to the manufacturer's procedure. The data were converted to percent inhibition relative to DMSO control, and IC50 curves were fitted using GraphPad Prism software."}, "4T1 tumor": {"tested_on": "4T1 tumor", "test": "4T1 syngeneic tumor model", "assay_type": "in vivo, BALB/c mice", "method": "To test potential immunomodulatory activity of Compound 1 in vivo, antitumor efficacy studies were performed in syngeneic tumor models.\nMBT-2 cells were obtained from the Japanese Collection of Research Bioresources Cell Bank and were maintained in DMEM supplemented with 10% FBS. MC38 cells were obtained from the NCI. 4T1 cells were obtained from ATCC and maintained in RPMI media supplemented with 10% FBS. For MBT-2 experiments, 5×10^5 MBT-2 cells were inoculated subcutaneously into the right hind flank of 6- to 8-week-old C3H mice or athymic nude mice (Charles River Laboratories, Wilmington, Mass.). For MC38 studies, 12-week old female C57BL/6 mice were inoculated with brei of MC38 tumors (in-vivo passage 6) into the right hind flank. For 4T1 studies, 7.5×10^5 4 T1 cells were inoculated subcutaneously into the right hind flank of 6- to 8-week-old female BALB/c mice or athymic nude mice (Charles River Laboratories). […] Mice were monitored for tumor growth and overt tolerability over the course of the experiment. […] Tumor volume was calculated using the formula (L×W^2)/2, where L and W refer to the length and width dimensions, respectively. Tumor growth inhibition (TGI) was calculated using the formula (1−(VT/VC))×100, where VT is the tumor volume of the treatment group on the last day of treatment, and VC is the tumor volume of the control group on the last day of treatment. […]"}}}
{"smiles": "CC(C)C(=O)N1CCC(c2cc(-c3ccc(NC(=O)c4cn(C(C)C)c(=O)n(-c5ccccn5)c4=O)cc3)c3c(N)ncnn23)CC1", "note": "[Compound 1, N-(4-(4-Amino-7-(1-isobutyrylpiperidin-4-yl)pyrrolo[1,2-f][1,2,4]triazin-5-yl)phenyl)-1-isopropyl-2,4-dioxo-3-(pyridin-2-yl)-1,2,3,4-tetrahydropyrimidine-5-carboxamide]", "values": [{"measurement": "IC50", "setting": "parental BAF3 cells", "value": "> 4", "unit": "µM"}, {"measurement": "antitumor efficacy (tumor volume)", "setting": "4T1 tumor; 4T1 in BALB/c mice, oral BID, FIG. 7B", "value": "dose-dependent efficacy"}, {"measurement": "ratio of M1-like to M2-like macrophages", "setting": "4T1 tumor; 4T1 tumors, flow cytometry, FIG. 7D", "value": "increased the ratio of M1-like to M2-like macrophages in a dose-dependent manner"}]}
